Results taken from US6660742B2, “Compositions and methods of the use thereof achiral analogues of CC-1065 and the duocarmycins” (priority 2000, dated 2003).
Read-outs that look alike come from different tables or passages of the source.

What was measured:
[1] = system: panel of 60 human cancer cell lines; experiment: NCI in-vitro cytotoxicity screen, whole panel; format: cell-based
ACHN = format: cell-based, human
MDA-MB-435 = experiment: NCI screen, MDA-MB-435 (Breast Cancer); format: cell-based, human
Experimental: (§1) The compounds of this invention were also tested against the panel of 60 human cancer cell lines at the National Cancer Institute, Bethesda, Md. […] The cytrotoxicity studies were conducted using a 48 hour exposure, and measuring the optical density of sulforhodamide B-derived color.

NCI-H322M = details: NCI-H322M; Log10 Concentration −5.3; 48 hour exposure
K-562 = experiment: NCI screen, K-562 (Leukemia)
Experimental: as §1

UACC-62 = experiment: NCI screen, UACC-62 (Melanoma)
Experimental: as §1

CCRF-CEM = experiment: NCI screen, CCRF-CEM (Leukemia)
Experimental: as §1

HT29 = experiment: NCI screen, HT29 (Colon Cancer)
Experimental: as §1

SNB-19 = experiment: NCI screen, SNB-19 (CNS Cancer)
Experimental: as §1

SK-MEL-2 = experiment: NCI screen, SK-MEL-2 (Melanoma)
Experimental: as §1

SK-MEL-5 = experiment: NCI screen, SK-MEL-5 (Melanoma)
Experimental: as §1

SK-MEL-28 = experiment: NCI screen, SK-MEL-28 (Melanoma)
Experimental: as §1

SN12C = experiment: NCI screen, SN12C (Renal Cancer)
Experimental: as §1

UO-31 = experiment: NCI screen, UO-31 (Renal Cancer); details: UO-31, 48 hour exposure
Experimental: as §1

CAKI-1 = experiment: NCI screen, CAKI-1 (Renal Cancer); details: CAKI-1, 48 hour exposure
Experimental: as §1

MDA-N = experiment: NCI screen, MDA-N (Breast Cancer); details: MDA-N, 48 hour exposure
Experimental: as §1

PC-3 = experiment: NCI screen, PC-3 (Prostrate Cancer)
Experimental: as §1

HS 578T = experiment: NCI screen, HS 578T (Breast Cancer); details: HS 578T, 48 hour exposure
Experimental: The compounds of this invention were also tested against the panel of 60 human cancer cell lines at the National Cancer Institute, Bethesda, Md. (44). The cytrotoxicity studies were conducted using a 48 hour exposure, and measuring the optical density of sulforhodamide B-derived color.

SK-OV-3 = experiment: NCI screen, SK-OV-3 (Ovarian Cancer)
Experimental: as §1

EKVX = experiment: NCI screen, EKVX (Non-Small Cell Lung Cancer)
Experimental: as §1

NCI-H23 = experiment: NCI screen, NCI-H23 (Non-Small Cell Lung Cancer)
Experimental: as §1

[2] = Log10 Concentration −4.3, 48 hour exposure
[3] = Log10 Concentration −5.3, 48 hour exposure
[4] = Log10 Concentration −6.3, 48 hour exposure
[5] = Log10 Concentration −7.3, 48 hour exposure
[6] = Log10 Concentration −8.3, 48 hour exposure

COC(=O)c1[nH]c2c(O)cc(NC(=O)c3cc4cc(OC)c(OC)c(OC)c4[nH]3)c(CCCl)c2c1C(=O)OC [Compound 22, Dimethyl 4-(2-chloroethyl)-7-hydroxy-5-(5,6,7-trimethoxyindole-2-carboxamido)indole-2,3-dicarboxylate]
range of activity ([1]; 48 hour exposure): micromolar range
activity against leukemia cells ([1]; leukemia cells): none of these compounds showed much activity
activity against melanoma cells ([1]; melanoma cells): active
activity against solid tumors cells ([1]; solid tumors cells): strong activity
TGI (ACHN): 5.95E−06 Molar
TGI (MDA-MB-435; 48 hour exposure): 3.95E−07 Molar
Percent Growth (MDA-MB-435; [2]): −32%
Percent Growth (MDA-MB-435; [3]): −28%
Percent Growth (MDA-MB-435; [4]): −11%
Percent Growth (MDA-MB-435; [5]): 97%
Percent Growth (MDA-MB-435; [6]): 96%
TGI (RPMI-8226): >5.00E−05 Molar
TGI (HOP-92; 48 hour exposure): 2.57E−06 Molar
Percent Growth (HOP-92; [2]): −38%
Percent Growth (HOP-92; [3]): −5%
Percent Growth (HOP-92; [4]): 12%
Percent Growth (HOP-92; [5]): 97%
Percent Growth (HOP-92; [6]): 101%
Percent Growth (NCI-H322M): −8%
TGI (K-562; 48 hour exposure): >5.00E−05 Molar
Percent Growth (K-562; [2]): 36%
Percent Growth (K-562; [3]): 34%
Percent Growth (K-562; [4]): 43%
Percent Growth (K-562; [5]): 77%
Percent Growth (K-562; [6]): 94%
TGI (UACC-62; 48 hour exposure): 1.85E−07 Molar
Percent Growth (UACC-62; [2]): −89%
Percent Growth (UACC-62; [3]): −78%
Percent Growth (UACC-62; [4]): −58%
Percent Growth (UACC-62; [5]): 76%
Percent Growth (UACC-62; [6]): 90%
TGI (CCRF-CEM; 48 hour exposure): >5.00E−05 Molar
Percent Growth (CCRF-CEM; [2]): 17%
Percent Growth (CCRF-CEM; [3]): 18%
Percent Growth (CCRF-CEM; [4]): 19%
Percent Growth (CCRF-CEM; [5]): 43%
Percent Growth (CCRF-CEM; [6]): 77%
TGI (HT29; 48 hour exposure): 2.28E−07 Molar
Percent Growth (HT29; [2]): −55%
Percent Growth (HT29; [3]): −59%
Percent Growth (HT29; [4]): −32%
Percent Growth (HT29; [5]): 63%
Percent Growth (HT29; [6]): 84%
TGI (SNB-19; 48 hour exposure): 1.64E−05 Molar
Percent Growth (SNB-19; [2]): −7%
Percent Growth (SNB-19; [3]): 7%
Percent Growth (SNB-19; [4]): 21%
Percent Growth (SNB-19; [5]): 83%
Percent Growth (SNB-19; [6]): 89%
TGI (SK-MEL-2; 48 hour exposure): 1.69E−07 Molar
Percent Growth (SK-MEL-2; [2]): −87%
Percent Growth (SK-MEL-2; [3]): −74%
Percent Growth (SK-MEL-2; [4]): −78%
Percent Growth (SK-MEL-2; [5]): 87%
Percent Growth (SK-MEL-2; [6]): 89%
Percent Growth (SK-MEL-5; [2]): −19%
Percent Growth (SK-MEL-5; [3]): 9%
Percent Growth (SK-MEL-5; [4]): −2%
Percent Growth (SK-MEL-5; [5]): 42%
Percent Growth (SK-MEL-5; [6]): 86%
TGI (SK-MEL-28; 48 hour exposure): 1.82E−06 Molar
Percent Growth (SK-MEL-28; [2]): −43%
Percent Growth (SK-MEL-28; [3]): −11%
Percent Growth (SK-MEL-28; [4]): 14%
Percent Growth (SK-MEL-28; [5]): 92%
Percent Growth (SK-MEL-28; [6]): 91%
TGI (SN12C; 48 hour exposure): 7.17E−06 Molar
Percent Growth (SN12C; [2]): −50%
Percent Growth (SN12C; [3]): 9%
Percent Growth (SN12C; [4]): 22%
Percent Growth (SN12C; [5]): 84%
Percent Growth (SN12C; [6]): 90%
Percent Growth (UO-31; Log10 Concentration −4.3): 8%
Percent Growth (UO-31; Log10 Concentration −5.3): 5%
Percent Growth (UO-31; Log10 Concentration −6.3): −47%
Percent Growth (UO-31; Log10 Concentration −7.3): 91%
Percent Growth (UO-31; Log10 Concentration −8.3): 96%
TGI (CAKI-1): 8.01E−06 Molar
Percent Growth (CAKI-1; Log10 Concentration −4.3): −40%
Percent Growth (CAKI-1; Log10 Concentration −5.3): 10%
Percent Growth (CAKI-1; Log10 Concentration −6.3): 12%
Percent Growth (CAKI-1; Log10 Concentration −7.3): 83%
Percent Growth (CAKI-1; Log10 Concentration −8.3): 97%
Percent Growth (MDA-N; Log10 Concentration −4.3): 8%
Percent Growth (MDA-N; Log10 Concentration −5.3): −3%
Percent Growth (MDA-N; Log10 Concentration −6.3): 5%
Percent Growth (MDA-N; Log10 Concentration −7.3): 91%
Percent Growth (MDA-N; Log10 Concentration −8.3): 90%
TGI (PC-3; 48 hour exposure): 6.40E−07 Molar
Percent Growth (PC-3; [2]): −88%
Percent Growth (PC-3; [3]): −32%
Percent Growth (PC-3; [4]): 4%
Percent Growth (PC-3; [5]): 55%
Percent Growth (PC-3; [6]): 81%
TGI (HS 578T): 2.80E−07 Molar
Percent Growth (HS 578T; Log10 Concentration −4.3): −54%
Percent Growth (HS 578T; Log10 Concentration −5.3): −73%
Percent Growth (HS 578T; Log10 Concentration −6.3): −41%
Percent Growth (HS 578T; Log10 Concentration −7.3): 122%
Percent Growth (HS 578T; Log10 Concentration −8.3): 130%
TGI (SK-OV-3; 48 hour exposure): 8.81E−06 Molar
Percent Growth (SK-OV-3; [2]): −54%
Percent Growth (SK-OV-3; [3]): 17%
Percent Growth (SK-OV-3; [4]): 35%
Percent Growth (SK-OV-3; [5]): 90%
Percent Growth (SK-OV-3; [6]): 103%
TGI (EKVX; 48 hour exposure): 5.14E−07 Molar
Percent Growth (EKVX; [2]): −83%
Percent Growth (EKVX; [3]): −62%
Percent Growth (EKVX; [4]): 1%
Percent Growth (EKVX; [5]): 102%
Percent Growth (EKVX; [6]): 102%
TGI (NCI-H23; 48 hour exposure): 5.63E−06 Molar
Percent Growth (NCI-H23; [2]): −25%
Percent Growth (NCI-H23; [3]): 1%
Percent Growth (NCI-H23; [4]): 9%
Percent Growth (NCI-H23; [5]): 56%
Percent Growth (NCI-H23; [6]): 83%
